Columns and labels:
human ASCs [1] = assay: Adipogenic differentiation of ASCs modulated by E2 (Example 2); format: cell-based; conditions: for increase of elution of Oil-O-Red staining: vs differentiation without estrogen, FIG. 7C
Method: Because estrogen receptors (ERs) exist in adipose tissues (Dieudonne et al. (2004) Am J Physiol Cell Physiol. 286:C655-661), it is hypothesized that estrogen can also modulate the differentiation potentials of ASCs. All the experiments using human ASCs were performed under an approved IRB protocol of the University of Illinois at Chicago. Human abdomen subcutaneous adipose tissue was obtained from a healthy person with lipo-aspirated surgery. ASCs were isolated from adipose tissue according to previous studies (Hong et al. (2006) Cells Tissues Organs. 183 (3):133-40). Briefly, adipose tissue was finely minced and then digested with 0.075 wt % collagenase type I (Sigma, St Louis, Mo.) at 37° C. for 45 min with intermittent shaking. The cells were collected by filtration with a cell strainer with pore size of 100 μm diameter (Fisher Scientific, Barrington, Ill.). The harvested cells were cultured in a Dulbecco's Modified Eagle's Medium (DMEM), 15% fetal bovine serum (FBS) and 1% antibiotic-antimycotic at 10^6 cells/100 mm dish. Upon reaching 80-90% confluence, the isolated cells were trypsinized, counted, and subcultured at a density of 10^5 cells/100 mm dish as passage-1. The cells used for study are passage-3.
The basic DMEM medium supplemented with 50 nM of dexamethasone, […] and 5 mM of isobutyl-methylxanthine (IBMX) was used to differentiate ASCs into adipocytes (Hong et al. (2005) Ann Biomed Eng. 33:511-517). At 70% confluence of ASCs in 12-well plates, the basic DMEM medium was exchanged for the adipogenic differentiation medium. The effects of estrogen on adipogenic differentiation were observed after E2 supplements at concentrations ranging from 10^−8 to 10^−11M. On day 4, the cells were collected for analysis of adipogenic and ER gene expressions. On day 7, adipogenic differentiation of ASCs modulated by estrogen was analyzed by Oil-O-Red staining and quantitative measurements. Each treatment group included four samples.
On the defined day, cells cultured in 12-well plates were washed twice with phosphate buffered solution (PBS), suspended and lysed in 1% Triton-X100 solution (Sigma, St. Louis, Mo.). The collected cells were subsequently homogenized using sonication (Dismembrator Model 100, Fisher Scientific, Barrington, Ill.). The DNA content in the cells was determined by a fluorometric assay using a spectrofluorometer and DNA quantification kit (Hoechst 33258, Bio-Rad, Hercules, Calif.). The total protein concentrations of lysates were measured by a simple colorimetric assay based on the Bradford dye-binding procedure (Bio-Rad, Hercules, Calif.). The amount of protein was normalized by the unit of DNA.
After 7 days of incubation with adipogenic differentiation medium supplemented with different concentrations of E2, cultured cells were fixed in 10% neutral buffered formalin for 15 min and washed with PBS twice. Cells were immersed in a 60% Oil-O-Red solution in PBS (Sigma, St Louis, Mo.) for 60 min. In order to quantify adipogenic potentials, the images of Oil-O-Red stained at each well were randomly taken by a digital camera connected to a computer monitor. The Oil-O-Red positive cells on the screen were double-blindly counted. Five pictures were taken from each well. The cell numbers were normalized to per mm^2. Oil-O-Red dye then was eluted by 500 μl of 100% isopropanol for each well of cultured cells. The spectrophotometric absorbance of the resulting solution was quantified at 510 nm.
Total RNA was extracted from the various differentiated cells using TRizol reagent (Invitrogen, Carlsbad, Calif.). Approximately 5 μg of total RNA was converted to single stranded cDNA using a commercial cDNA synthesis kit (Invitrogen, Carlsbad, Calif.). […]

human ASCs [2] = assay: Osteogenic differentiation of human ASCs modulated by E2 (Example 1); format: cell-based
Source text: Human bone marrow MSCs were provided by the Center for Gene Therapy of Tulane University. The MSCs were isolated from bone marrow cells donated by a healthy adult volunteer. The passage-1 cells were recovered and expanded by culture in a basic medium composed of DMEM, 10% FBS and 1% antibiotic-antimycotic. Human ASCs were isolated from a healthy person with a lipo-aspirated surgery. The abdomen subcutaneous adipose tissue was finely minced and then digested with 0.075 wt % collagenase type I at 37° C. for 45 min. The cells were then collected by filtration with a cell strainer with pore size of 100 μm diameter. The ASCs were expanded in basic DMEM medium. Upon reaching 80-90% confluence of human MSCs and ASCs, the cells were trypsinized, counted, and subcultured at a density of 10^5 cells/100 mm dish. The cells used for study were passage-2. For osteogenic differentiation, the cells were seeded at a cell density of 10^4 cells/cm2 on 12-well plates and 100-mm petri dishes. Upon reaching 70% confluence, counting as day-0, the cells were exposed to osteogenic differentiation medium supplemented with either 10 nM or 10 pM E2. The osteogenic differentiation medium consisted of basic medium supplemented with 100 nM dexamethasone, 10 mM β-glycerophosphate, and 0.05 mM ascorbic acid-2-phosphate. At the defined time, the cells were collected and analyzed for osteogenic gene expression and differentiation potentials.
The cultured cells in 12-well plates were washed twice with PBS, suspended and lysed in 1% Triton-X100 solution. The collected cells were subsequently homogenized using sonication. The DNA content was determined by a fluorometric assay (Bio-Rad). ALP and calcium content were measured by spectrophotometry with a calorimetric kit according to the manufacturers' instructions (Sigma).
RNA was extracted from differentiated cells using TRizol reagent (Invitrogen). 5 μg of total RNA was converted to single stranded cDNA using a commercial cDNA synthesis kit. Aliquots of the cDNA were amplified with Ampli-Taq DNA polymerase for ALP, osteocalcin (OCN), core binding factor alpha1 (cbfa1), peroxisome proliferator activated receptors gamma (PPARγ)-2, estrogen receptors (ER) alpha (α) and beta (β), and housekeeping gene GAPDH. 40 cycles were used, each consisting of 45 sec of denaturation at 95° C., 45 sec of annealing at 58° C., and 1 min of polymerization at 72° C.

Compound: C[C@]12CC[C@@H]3c4ccc(O)cc4CC[C@H]3[C@@H]1CC[C@@H]2O [E2, 17-β estradiol]
- ERβ expression (RT-PCR) (human ASCs [1]; 4 days, FIG. 6): undetected
- ERα expression (RT-PCR) (human ASCs [1]; 4 days, no ERα band without E2 supplement, FIG. 6): expressed
- DNA amount (human ASCs [1]; 7 days adipogenic media with E2 supplements, FIG. 7A): decreased
- number of Oil-O-Red positively stained cells (human ASCs [1]; 7 days, FIG. 7B): increased
- population of lipid-containing cells (human ASCs [1]; ASCs after E2 supplement, Oil-O-Red staining): increased population
- increase of elution of Oil-O-Red staining (human ASCs [1]; estrogen 10^−8 M, 7 days): 33.9%
- increase of elution of Oil-O-Red staining (human ASCs [1]; estrogen 10^−9 M, 7 days): 25.5%
- effects on adipogenesis at low concentrations (human ASCs [1]; estrogen supplement at low concentrations): hardly observed
- calcium content (human ASCs [2]; FIG. 2F): significantly increased
- ALP activities (human ASCs [2]; after 14 days, FIG. 2E): significantly improved
- OCN expression (RT-PCR) (human ASCs [2]; day 7, E2 10 nM): only densely expressed
- cbfa-1 expression (RT-PCR band) (human ASCs [2]; day 7, vs differentiation without estrogen supplement): denser band
- cell proliferation (amount of DNA) during osteogenesis (human ASCs [2]; higher dose of E2, FIG. 2D): inhibits
- ALP and von Kossa staining (human ASCs [2]; osteogenic differentiation medium supplemented with E2 (10 nM or 10 pM)): denser color
